“Also recorded” adds a separate entry of the source. Where two headings read alike, the source gives them in different places.

Data set [1] relates to cells. Particulars: cited from earlier work; for cytotoxicity: crosslinking agent.
Data set [2] can be described thus: SEM fiber morphology after exposure to aqueous environment (water, DMEM). It is filed as physicochemical. Particulars: genipin 0.03-0.1 M in absolute ethanol or isopropanol, crosslinking for 5 days. As to the method: All samples were imaged using a Scanning Electron Microscope (Leo 1530) and diameters of 100 randomly selected fibers were measured, per sample, using image processing software (ImageJ). One-way ANOVA using the Tukey test was used to compare the difference between the diameters of crosslinked samples (Dcrosslink) and after exposure to growth media for 1 and 3 days (Dfinal). If a significant difference existed, the percent swelling was then calculated using the equation: […]
The experimental parameters investigated were: solvent (isopropanol, ethanol), water content (0%, 1%, 3% and 5%) and reaction time (1, 3 and 5 days). All electrospun collagen fiber samples were exposed to air and the reaction temperature was maintained at 37° C. in an incubator. The genipin concentration was fixed at 11.3 mg of genipin per mg of collagen, which was sufficient for the crosslinking reaction to reach completion (Yao, C. H., et al., Materials Chemistry and Physics 2004, 83, (2-3), 204-208). After crosslinking, the collagen samples were washed in ethanol or isopropanol (depending on the solvent used) for further characterization.

For data set [3] the following is noted: literature reports on alternative crosslinkers, cited from earlier work.

`COC(=O)C1=CO[C@@H](O)[C@@H]2C(CO)=CC[C@H]12` [genipin]: the cell proliferation result in data set [1] (compared to glutaraldehyde) is recorded as “more stimulative to cell proliferation”. Further, in data set [1], the cytotoxicity result is reported as “low cytotoxicity”. Also, the “morphology and overall architecture of collagen nanofibers after exposure to water” value in data set [2] was “failed to maintain the morphology”.

With `O=C1CCC(=O)N1O` [NHS, N-hydroxysuccinimide], the “swelling / morphology of crosslinked collagen fibers in water” value (“swelling / morphology” below) in data set [3] is reported as “significant degree of swelling”.

Regarding `CCN=C=NCCCN(C)C` [EDC, 1-ethyl-3-(3-dimethylaminopropyl) carbodiimide], the “swelling / morphology” value in data set [3] is reported as “significant degree of swelling”.

`O=CCCCC=O` [glutaraldehyde, Glutaraldehyde]: the cytotoxicity entry in data set [1] is “highly cytotoxic”. For the same compound, the “swelling / morphology” value in data set [3] is “not very effective in controlling its swelling properties”; in data set [3] (listed as GA), “failed to maintain collagen fiber morphology; also recorded: swell significantly in water”.

The record behind these values is patent publication US20100183699A1, “COMPOSITIONS AND METHODS TO CROSS LINK POLYMER FIBERS” (priority 2009, published 2010).
